Laboratory results as given in patent US20230390397A1, “SYSTEM, METHOD AND PROCESS FOR SELF-STERILIZATION OF IODINE-[…]” (HDR LLC, priority 2022, published 2023).
In brackets after ≈: the same amount, converted by molar mass. Several values for one entry are separate records, joined by “and”; a condition that tells them apart may be missing. Equal entries are not always repeated. Where two headings read alike, the source gives them in different places.

Assays:
[1] = Evaporation of I2 from I2 and I- mixed solutions in an open and well-ventilated space; type: physicochemical; conditions: initial I2 concentration 0.99 mm, open system
Description: The effects of temperature, concentration of I2, and presence of I— on the evaporation of I2 in I2 and I— mixed solutions were investigated in an open and well-ventilated space. From the experiments, it was confirmed that the evaporation rate of I2 increased exponentially as the solution temperature increased, showing a similar trend with temperature dependence of the saturated vapor pressure of I2.
The phenomenon that I2 evaporation was expedited at higher temperature can be explained by temperature dependency of the evaporation enthalpy and saturated vapor pressure. For an open system, the vapor pressure of elemental iodine increases about 14 torr, or 0.27 psi.

[2] = cited from earlier work

## II [Elemental iodine, Elemental iodine (I2)]
[1]; 50° C.
  lapsed time required to reduce less than 10% of the initial concentration: ~30 min
[1]; 80° C.
  lapsed time required to reduce less than 10% of the initial concentration: ~7 min
[2]; 20° C.
  free iodine which is soluble in water: 290 ppm
  solubility in water: 0.29 g/L (≈ 1.14 mM)
[2]; 25° C.
  solubility in water: 0.33 g/l and 1.2 mM
[2]; 50° C.
  solubility in water: 0.78 g/L (≈ 3.07 mM)
[2]; 70° C.
  free iodine which is soluble in water: 1,100 ppm
[2]; 80° C.
  free iodine which is soluble in water: 1,250 ppm
  solubility in water: 1.25 g/L (≈ 4.92 mM)
